According to PubChem BioAssay AID1996:
Values after ≈ are worked out from the molar mass of the structure shown.

Conditions: buffer; pH 7.4; 200.0 µM

Row | Structure (SMILES) | solubility kinetic
1 | CCN(Cc1ccncc1)C(=O)c1ccc2c(c1)S(=O)(=O)c1ccccc1C2=O | 42 µg/mL (≈ 103 µM)
2 | COc1ccc(-c2noc(CSc3nc(N)cc(=O)[nH]3)n2)cc1 | 7.7 µg/mL (≈ 23.2 µM)
3 | COc1ccc2c(c1)c(C(=O)O)c(C)n2-c1ccc(Cl)cc1 | 15.2 µg/mL (≈ 48.1 µM)
4 | COc1ccc(-c2ccc3ccccc3n2)cc1 | < 0.5 µg/mL
5 | Cc1cc(C)c(C2=CSC3=NS(=O)(=O)CCN23)c(C)c1 | > 46.3 µg/mL
6 | O=S(=O)(NC1CCSc2ccccc21)c1ccccc1 (stereo not drawn) | 15.6 µg/mL (≈ 51.1 µM)
7 | O=C(O)c1ccccc1Nc1ccc([N+](=O)[O-])cc1C(=O)O | > 45.3 µg/mL
8 | OC(c1nc2ccccc2[nH]1)C(O)C(O)C(O)c1nc2ccccc2[nH]1 (stereo not drawn) | 1.4 µg/mL (≈ 3.95 µM)
9 | Cc1nc2ccccc2n1Cc1ccccc1 | 32.9 µg/mL (≈ 148 µM)
10 | S=C(NCCc1ccccn1)Nc1cc(Cl)cc(Cl)c1 | 19 µg/mL (≈ 58.2 µM)
11 | COc1cc(C(=O)OC2CCOC2=O)c([N+](=O)[O-])cc1OC (stereo not drawn) | > 46.7 µg/mL
12 | CNc1ccc(C(=O)OCC(=O)NC(=O)NC2CCCC2)cc1[N+](=O)[O-] | 1.7 µg/mL (≈ 4.67 µM)
13 | COC(=O)[C@@H](NC(=O)N1CCC(Cc2ccccc2)CC1)C(C)C | > 49.9 µg/mL
14 | Cc1cccc(C)c1NC(=O)COC(=O)c1cc(S(=O)(=O)Nc2ccc(Cl)cc2)ccc1O | 11.5 µg/mL (≈ 23.5 µM)
15 | Cc1nc([N+](=O)[O-])c(C(=O)OCc2ccccc2C#N)n1C | > 45 µg/mL
16 | Nc1ccc[n+](CC(=O)c2ccccc2)c1.[Br-] | > 44 µg/mL
17 | C=CCNC(=O)CSCc1ccc(Br)cc1 | > 45 µg/mL
18 | COc1cccc(C(=O)COc2cccc(NC(=O)c3ccco3)c2)c1 | 14 µg/mL (≈ 39.8 µM)
19 | CN1CC(C(=O)c2ccc(Cl)cc2)C(c2ccc(N(C)C)cc2)C1 (stereo not drawn) | 47.1 µg/mL (≈ 137 µM)
20 | O=C(O)c1cnc2[nH]c3ccccc3n2c1=O | > 34.4 µg/mL
21 | COc1ccc(NC(=O)c2ccc(NC(=O)CN3CCN(c4ccccc4)CC3)cc2)cc1 | 1.4 µg/mL (≈ 3.15 µM)
22 | Cc1ccccc1-n1c(=O)n(Cc2ccco2)c(=O)c2[nH]cnc21 | > 48.3 µg/mL
23 | O=C(Cn1ccnc1[N+](=O)[O-])NCc1ccccc1 | > 39 µg/mL
24 | Cc1ccc(Cl)c(Nc2ccccc2C(=O)[O-])c1Cl.[Na+] | > 47.7 µg/mL

Row | Structure (SMILES) | solubility kinetic
25 | COCCCNc1ccc([N+](=O)[O-])cc1C(=O)Nc1cccc(C)n1 | 2.9 µg/mL (≈ 8.42 µM)
26 | COC(=O)c1ccc(COC(=O)CNC(=O)c2cccs2)cc1 | > 50 µg/mL
27 | Cc1ccc(NC(=O)CN(C)C(=O)c2ccc(Cl)c(S(=O)(=O)NCc3ccco3)c2)cc1 | 9 µg/mL (≈ 18.9 µM)
28 | Fc1ccc(Oc2ccnc(Cl)n2)c(Cl)c1 | 16.9 µg/mL (≈ 65.2 µM)
29 | CC(=O)c1cccc(NC(=O)COC(=O)c2ccccc2C)c1 | 4.9 µg/mL (≈ 15.7 µM)
30 | Cl.O=C(O)CN1CCCCC1 | 23.8 µg/mL
31 | O=[N+]([O-])c1ccc(SCc2c(F)cccc2Cl)nc1 | < 0.3 µg/mL
32 | COc1cccc(NCCC(=O)c2cccc([N+](=O)[O-])c2)c1 | 12.4 µg/mL (≈ 41.3 µM)
33 | NC(=O)c1ccccc1 | > 18.2 µg/mL
34 | O=c1cc(Cl)[nH]c(=O)n1Cc1ccccc1 | > 35.5 µg/mL
35 | CCc1ccc(OCCn2ccnc2)cc1 | 19.7 µg/mL (≈ 91.1 µM)
36 | CC(=O)C1=C(C)OC(N)=C(C#N)C1c1cccnc1 (stereo not drawn) | > 38.3 µg/mL
37 | Br.Cn1c(=N)n(CC(=O)c2ccccc2)c2ccccc21 | > 51.9 µg/mL
38 | COC(=O)c1cn(CC(=O)Nc2ccc(F)cc2)c2ccccc12 | < 0.3 µg/mL
39 | CN1CCN(c2cc3c(cc2F)c(=O)c(C(=O)O)cn3CCF)CC1 | > 52.7 µg/mL
40 | Cc1c(C=O)c2ccccc2n1Cc1ccccc1F | 20.4 µg/mL (≈ 76.3 µM)
41 | Cc1ccc(-c2nc3ncccc3o2)cc1NC(=O)C(C)(C)C | 44.4 µg/mL (≈ 144 µM)
42 | CN1CCN(C(=O)c2cc3cc(Cl)ccc3[nH]2)CC1.Cl | > 47.1 µg/mL
43 | CCOC(=O)CN1C(=N)N(c2nc(NC(C)C)nc(OC)n2)CC1=O | > 52.7 µg/mL
44 | O=C(c1ccco1)N1CCN(C(=S)NC2CC3CCC2C3)CC1 (stereo not drawn) | 46.8 µg/mL (≈ 140 µM)
45 | CCCCOC(=O)N1CCOCCOCCOCC1 | 40.2 µg/mL (≈ 146 µM)
46 | O=C(c1ccc2ccccc2n1)N1CCN(S(=O)(=O)c2ccc(Cl)cc2)CC1 | 27.4 µg/mL (≈ 65.9 µM)
47 | COCCCNCC(O)C(F)(F)F (stereo not drawn) | 24.4 µg/mL (≈ 121 µM)
48 | Cn1cnc([N+](=O)[O-])c1C(=O)Nc1cccc([N+](=O)[O-])c1 | 11.2 µg/mL (≈ 38.5 µM)

Row | Structure (SMILES) | solubility kinetic
49 | O=C(NC1CCC(O)CC1)c1ccc(-c2ccc(Cl)cc2)o1 (stereo not drawn) | 18.7 µg/mL (≈ 58.5 µM)
50 | COc1ccc(C(=O)NC(C)c2ccc(-n3ccnc3)cc2)c(OC)c1 (stereo not drawn) | > 52.7 µg/mL
51 | O=C(NCC(=O)N1CCN(c2ccccc2F)CC1)c1ccco1 | > 49.7 µg/mL
52 | Cc1ccc(NC(=O)COc2cccc3ccccc23)c(O)c1 | 3.8 µg/mL (≈ 12.4 µM)
53 | OCC1(Cc2ccccc2)CCCN(C2CCCC2)C1 (stereo not drawn) | 34.1 µg/mL (≈ 125 µM)
54 | CCOC(=O)C(=CNc1ccc(C(F)(F)F)cc1)C(=O)OCC | 2.7 µg/mL (≈ 8.15 µM)
55 | C=CCN1C(=O)/C(=C/c2ccc(Br)s2)C(=O)NC1=S | 15.7 µg/mL (≈ 43.9 µM)
56 | Cc1cccc(CC(=O)NCC2CCCCC2)c1 | > 36.8 µg/mL
57 | Cc1ccsc1C(=O)Nc1nccs1 | > 33.6 µg/mL
58 | O=C(NCc1ccccn1)C(=O)NCC(c1ccco1)N1CCOCC1 (stereo not drawn) | > 53.8 µg/mL
59 | COc1ccc2c(c1O)C13CCN(C)C(C2)C1CCC(=O)C3 (stereo not drawn) | > 45.2 µg/mL
60 | CCNC(=O)COC(=O)CCC(=O)c1ccc(F)cc1 | > 42.2 µg/mL
61 | Cc1ccc(C)c(-n2c(=O)c(C#N)cc3c(=O)n4ccccc4nc32)c1 | 6.2 µg/mL (≈ 18.1 µM)
62 | CCOc1ccc(C(=O)OCC(=O)Nc2cccnc2Cl)cc1OCC | 19 µg/mL (≈ 50.2 µM)
63 | CC(=O)c1cccc(S(=O)(=O)Nc2ccccc2N2CCOCC2)c1 | > 54.1 µg/mL
64 | CCCNC(=O)CSc1nnc(-c2ccc(F)cc2)o1 | > 44.3 µg/mL
65 | CCc1ccc(/C=C2\SC(N3CCCC3)=NC2=O)cc1 | 12.8 µg/mL (≈ 44.7 µM)
66 | O=C(COC(=O)c1ccncc1)c1ccc(Br)cc1 | 44 µg/mL (≈ 137 µM)
67 | Cc1ccc(C)c(S(=O)(=O)N2CCN(C(=O)[C@@H]3CCCN3C(=O)c3cccs3)CC2)c1 | 40.4 µg/mL (≈ 87.5 µM)
68 | Cc1cccc(-n2c(O)c(C=Nc3cccc(O)c3)c3ccccc3c2=O)n1 | 0.8 µg/mL (≈ 2.15 µM)
69 | CC(=O)c1c[nH]c(C(=O)NCc2ccccc2Cl)c1 | 3.5 µg/mL (≈ 12.6 µM)
70 | CCC(C)NC(=O)C(=O)NCC1CCCN1CC (stereo not drawn) | 28.8 µg/mL (≈ 113 µM)
71 | O=c1[nH]c(=S)n(-c2ccccc2)c(O)c1C=NCc1ccccn1 | > 50.8 µg/mL
72 | CC(C)CCOc1ccc(C2(C)NC(=O)NC2=O)cc1 (stereo not drawn) | 38.5 µg/mL (≈ 139 µM)

Row | Structure (SMILES) | solubility kinetic
73 | O=C(NCCC1=CCCCC1)c1cc(-c2ccncc2)nc2ccccc12 | 1.2 µg/mL (≈ 3.36 µM)
74 | COc1cccc(C(=O)Nc2ccc(C(=O)c3ccccc3)cc2)c1 | 7.4 µg/mL (≈ 22.3 µM)
75 | CN1CCC(OC(c2ccccc2)c2ccccc2)CC1.Cl | > 47.7 µg/mL
76 | Nc1nc(Cl)c(C=O)c(N2CCCCC2)n1 | 34.6 µg/mL (≈ 144 µM)
77 | O=C(CNC(=O)c1ccc(Br)cc1)c1ccccc1 | 1.3 µg/mL (≈ 4.09 µM)
78 | CC(NC(=O)COC(=O)COc1ccc(Cl)cc1)c1ccccc1 (stereo not drawn) | 40.2 µg/mL (≈ 116 µM)
79 | Cc1ccc(S(=O)(=O)N2CCCCC2C)cc1[N+](=O)[O-] (stereo not drawn) | 24.2 µg/mL (≈ 81.1 µM)
80 | Cc1ccccc1Nc1c(-c2ccccn2)nc2c(C)cccn12 | 1 µg/mL (≈ 3.18 µM)
81 | COc1ccc(NC2(C#N)CCCCC2)cc1 | 12.4 µg/mL (≈ 53.8 µM)
82 | Cc1ccc(NC(=O)COC(=O)c2cccnc2)cc1 | > 40.5 µg/mL
83 | COc1ccnc2c1c(=O)n(Cc1ccc(F)cc1)c(=O)n2C | 25.2 µg/mL (≈ 79.9 µM)
84 | COc1ccccc1Nc1nc(NCc2ccco2)nc(N)c1[N+](=O)[O-] | < 0.1 µg/mL
85 | Cc1ccn2c(=O)c(C(=O)O)cnc2c1 | > 30.6 µg/mL
86 | Cc1ccc(S(=O)(=O)N2CCN(CCc3ccncc3)CC2)cc1 | > 51.8 µg/mL
87 | O=C(COC(=O)/C=C/c1cccs1)Nc1ccc(F)cc1 | 8.4 µg/mL (≈ 27.5 µM)
88 | COc1ccc(NC(=O)CN2CCc3ccccc3C2)cc1OC | > 49 µg/mL
89 | Cc1nc(SCC(N)=O)c(C#N)c(C)c1C | 4.4 µg/mL (≈ 18.7 µM)
90 | O=c1c(Cc2ccccc2)c(O)ccn1C1CCCCCCC1 | 1.5 µg/mL (≈ 4.82 µM)
91 | COc1ccc2oc(C(=O)N3CCN(S(=O)(=O)c4ccc(F)cc4)CC3)c(C)c2c1 | 7.5 µg/mL (≈ 17.3 µM)
92 | COc1ccc(C(CNC(=O)c2cc(S(=O)(=O)N3CCN(c4ccccc4)CC3)ccc2Cl)N(C)C)cc1 (stereo not drawn) | 49.4 µg/mL (≈ 88.7 µM)
93 | CCOc1ccc(S(=O)(=O)N(C)C2CCCCC2)cc1 | 18.1 µg/mL (≈ 60.9 µM)
94 | CC(C)(C)c1ccc(C(=O)/C(C#N)=C/c2cccs2)cc1 | 4.1 µg/mL (≈ 13.9 µM)
95 | O=C(NCC1CCCO1)c1cccc(Oc2ccccc2)c1 (stereo not drawn) | 40.1 µg/mL (≈ 135 µM)
96 | NC(=O)c1ccccc1OC1CCC1 | > 28.7 µg/mL

Row | Structure (SMILES) | solubility kinetic
97 | Cc1ccccc1C(=O)NC(=S)NCc1cccnc1 | > 42.8 µg/mL
98 | Cc1ccc(N=C2NC(=O)/C(=C/c3cccn3C)S2)c(C)c1 | 1.2 µg/mL (≈ 3.85 µM)
99 | CCc1ccc(C(N)=S)cc1 | > 24.8 µg/mL
100 | Cn1c(-c2ccc(Cl)nc2)nc2ccccc21 | > 36.6 µg/mL
101 | CC(=O)Nc1ccc(NC(=O)C2c3ccccc3Oc3ccccc32)cc1 | 1.1 µg/mL (≈ 3.07 µM)
102 | Cc1ccc(OCC(=O)NCCNC(=O)c2ccncc2)cc1C | > 49.1 µg/mL
103 | O=C(COC(=O)COc1ccccc1F)Nc1ccc2c(c1)OCO2 | > 52.1 µg/mL
104 | COc1ccc(CCNC(=O)COc2ccccc2[N+](=O)[O-])cc1OC | > 54.1 µg/mL
105 | Cc1ccc(C(=O)NCCc2c[nH]c3ccccc23)s1 | > 42.7 µg/mL
106 | CCOC(=O)C1=C(C)OC(N)=C(C#N)C1c1ccccc1 (stereo not drawn) | 37.1 µg/mL (≈ 130 µM)
107 | CC(=O)c1c(C)n(CCc2ccc(Cl)cc2)c2ccc(O)cc12 | < 0.7 µg/mL
108 | OC1C2CN3CN(C2)CC1(c1ccccc1)C3 (stereo not drawn) | > 34.5 µg/mL
109 | O=C(Nc1ccc(N2CCCCC2)cc1)c1ccc2ccccc2n1 | < 0.2 µg/mL
110 | COc1ccc(CN(C)C(C)C(=O)Nc2ccc(S(=O)(=O)N3CCCCC3)cc2)c(OC)c1 (stereo not drawn) | 6.1 µg/mL (≈ 12.8 µM)
111 | CCOc1ccc(NC(=O)c2cc(OC)nc3ccccc23)cc1 | 0.6 µg/mL (≈ 1.86 µM)
112 | CCC(C)NC(=O)CN1C(=O)NC2(CCc3ccccc3C2)C1=O (stereo not drawn) | > 49.4 µg/mL
113 | COC(=O)C1=C(C)Nc2nc3ccccc3n2C1c1ccccc1F (stereo not drawn) | 0.3 µg/mL (≈ 0.889 µM)
114 | CCc1ccc(C(=O)OCC(=O)NCC(F)(F)F)cc1 | 17.9 µg/mL (≈ 61.9 µM)
115 | CCC(CC)C(=O)N1CCN(c2ccccc2)CC1 | > 39.1 µg/mL
116 | COC(=O)c1scc(C)c1NC(=O)CSc1ccc(Cl)cc1 | 1.3 µg/mL (≈ 3.65 µM)
117 | CCc1ccc(C(=O)COC(=O)CNC(=O)Cc2ccccc2)cc1 | 36.6 µg/mL (≈ 108 µM)
118 | O=C(CCCN1C(=O)c2ccccc2C1=O)NCCCn1ccnc1 | 49.5 µg/mL (≈ 145 µM)
